23 compounds from PubChem BioAssay AID256 (DTP/NCI, 2004) can be followed below.

“And” between values parts separate entries of the source, which are not always exact repeats. Identical values can stand only once. Toxic doses and inconclusive results are not listed.

This test has as its system CD2F1 mice, L1210 leukemia ip, survival T/C. The experiment in a line: NCI In Vivo Anticancer Drug Screen. Data for tumor model L1210 Leukemia (intraperitoneal) in CD2F1 (CDF1) mice. The conditions noted are these: higher = longer survival. The procedure, abridged:
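Antitumor effect is scored in animals hosting a serially transplanted tumor. Values compare compound-dosed animals against vehicle-only controls as a simple quotient.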

Setting [1] is: endpoint: mean survival time, dose: 50.0 mg/kg/injection, schedule: Q01DX009 (ip), vehicle: saline with Tween-80.
The mark [2] stands for this setting: endpoint: mean survival time, dose: 100.0 mg/kg/injection, schedule: Q01DX009 (ip), vehicle: saline with Tween-80.
The mark [3] stands for this setting: endpoint: mean survival time, dose: 100.0 mg/kg/injection, schedule: Q04DX003 (ip), vehicle: saline with Tween-80.
Where [4] appears, read: endpoint: mean survival time, dose: 200.0 mg/kg/injection, schedule: Q01DX009 (ip), vehicle: saline with Tween-80.
Where [5] appears, read: endpoint: mean survival time, dose: 200.0 mg/kg/injection, schedule: Q04DX003 (ip), vehicle: saline with Tween-80.
Where [6] appears, read: endpoint: mean survival time, dose: 400.0 mg/kg/injection, schedule: Q04DX003 (ip), vehicle: saline with Tween-80.
Where [7] appears, read: endpoint: mean survival time, dose: 100.0 mg/kg/injection, schedule: Q04DX002 (ip), vehicle: saline with Tween-80.
The mark [8] stands for this setting: endpoint: mean survival time, dose: 200.0 mg/kg/injection, schedule: Q04DX002 (ip), vehicle: saline with Tween-80.
Setting [9] is: endpoint: mean survival time, dose: 12.5 mg/kg/injection, schedule: Q01DX009 (ip), vehicle: other.
Setting [10] is: endpoint: mean survival time, dose: 25.0 mg/kg/injection, schedule: Q01DX009 (ip), vehicle: other.
The mark [11] stands for this setting: endpoint: mean survival time, dose: 50.0 mg/kg/injection, schedule: Q01DX009 (ip), vehicle: other.
Where [12] appears, read: endpoint: mean survival time, dose: 100.0 mg/kg/injection, schedule: Q01DX009 (ip), vehicle: other.
Where [13] appears, read: endpoint: mean survival time, dose: 200.0 mg/kg/injection, schedule: Q01DX009 (ip), vehicle: other.
Setting [14] is: endpoint: mean survival time, dose: 100.0 mg/kg/injection, schedule: Q01DX001 (ip), vehicle: saline.
Where [15] appears, read: endpoint: mean survival time, dose: 200.0 mg/kg/injection, schedule: Q01DX001 (ip), vehicle: saline.
The mark [16] stands for this setting: endpoint: mean survival time, dose: 400.0 mg/kg/injection, schedule: Q01DX001 (ip), vehicle: saline.
The mark [17] stands for this setting: endpoint: mean survival time, dose: 12.5 mg/kg/injection, schedule: Q01DX009 (ip), vehicle: saline with Tween-80.
[18] abbreviates: endpoint: mean survival time, dose: 12.5 mg/kg/injection, schedule: Q04DX003 (ip), vehicle: saline.
The mark [19] stands for this setting: endpoint: mean survival time, dose: 25.0 mg/kg/injection, schedule: Q01DX009 (ip), vehicle: saline with Tween-80.
[20] abbreviates: endpoint: mean survival time, dose: 25.0 mg/kg/injection, schedule: Q04DX003 (ip), vehicle: saline.
Setting [21] is: endpoint: mean survival time, dose: 400.0 mg/kg/injection, schedule: Q01DX009 (ip), vehicle: saline with Tween-80.
Where [22] appears, read: endpoint: mean survival time, dose: 100.0 mg/kg/injection, schedule: Q01DX001 (ip), vehicle: saline with Tween-80.
[23] abbreviates: endpoint: mean survival time, dose: 200.0 mg/kg/injection, schedule: Q01DX001 (ip), vehicle: saline with Tween-80.
The mark [24] stands for this setting: endpoint: mean survival time, dose: 400.0 mg/kg/injection, schedule: Q01DX001 (ip), vehicle: saline with Tween-80.

With `CCc1c(C)[nH]c2ccc([N+](=O)[O-])cc12`, the T/C is 103 % of control under setting [1]; 94 % of control under setting [2]; 100 % of control under setting [3]; 97 % of control under setting [4]; 93 % of control under setting [5].
For `COc1cc(C)cc(O)c1C=O`, the T/C under setting [3] is 100 % of control, the T/C under setting [5] is 100 % of control and the T/C under setting [6] is 100 % of control.
As to `O=C(O)C(O)c1ccccc1` (configuration not stated), the T/C (endpoint: mean survival time, dose: 100.0 mg/kg/injection, schedule: Q04DX002 (ip), vehicle: saline) is 101 % of control and the T/C (endpoint: mean survival time, dose: 200.0 mg/kg/injection, schedule: Q04DX002 (ip), vehicle: saline) was 114 % of control.
As for `COc1ccc(C(=O)C(=O)c2ccccc2Cl)cc1`, the T/C is 98 % of control under setting [7]; 102 % of control under setting [8]; 95 % of control (endpoint: mean survival time, dose: 400.0 mg/kg/injection, schedule: Q04DX002 (ip), vehicle: saline with Tween-80).
Regarding `CCOP(=O)(OCC)C(C)OC` (configuration not stated), the T/C (endpoint: mean survival time, dose: 100.0 mg/kg/injection, schedule: Q04DX003 (ip), vehicle: saline) is 97 % of control; the T/C (endpoint: mean survival time, dose: 200.0 mg/kg/injection, schedule: Q04DX003 (ip), vehicle: saline) was 108 % of control; the T/C (endpoint: mean survival time, dose: 400.0 mg/kg/injection, schedule: Q04DX003 (ip), vehicle: saline) was 97 % of control.
As to `COc1ccc(C(=O)/C(C)=C(/C)NCCC#N)c(OCc2ccccc2)c1OC`, the T/C under setting [9] was 97 % of control; the T/C under setting [10] is 97 % of control; the T/C under setting [11] was 97 % of control; the T/C under setting [12] is 95 % of control; the T/C under setting [13] is 104 % of control.
As for `O=c1[nH]c2c(c(=O)n1-c1ccccc1)CCCS2`, the T/C runs as follows: under setting [14], 103 % of control; under setting [15], 104 % of control; under setting [16], 103 % of control.
For the compound `N#CCCCN1CCCCC1`, the T/C by setting is: (endpoint: mean survival time, dose: 6.25 mg/kg/injection, schedule: Q01DX009 (ip), vehicle: saline with Tween-80) 103 % of control; (endpoint: mean survival time, dose: 6.25 mg/kg/injection, schedule: Q04DX003 (ip), vehicle: saline) 89 % of control; under setting [17], 97 % of control; under setting [18], 98 % of control; under setting [19], 100 % of control; under setting [20], 93 % of control.
As to `COc1cc(OC)c(NC(=O)Oc2ccc(SC)cc2)cc1Cl`, the T/C was 94 % of control under setting [17]; 97 % of control under setting [19]; 97 % of control under setting [1]; 88 % of control under setting [2]; 92 % of control under setting [4].
As to `O=c1[nH]c(=O)n(C2CC(O)C(CO)O2)cc1-c1ccccc1` (configuration not stated), the T/C is, setting by setting: (endpoint: mean survival time, dose: 12.5 mg/kg/injection, schedule: Q01DX005 (ip), vehicle: distilled water + Tween-80) 98 % of control; (endpoint: mean survival time, dose: 25.0 mg/kg/injection, schedule: Q01DX005 (ip), vehicle: distilled water + Tween-80) 95 % of control; (endpoint: mean survival time, dose: 50.0 mg/kg/injection, schedule: Q01DX005 (ip), vehicle: distilled water + Tween-80) 98 % of control; (endpoint: mean survival time, dose: 100.0 mg/kg/injection, schedule: Q01DX005 (ip), vehicle: distilled water + Tween-80) 95 % of control; (endpoint: mean survival time, dose: 200.0 mg/kg/injection, schedule: Q01DX005 (ip), vehicle: distilled water + Tween-80) 98 % of control.
As to `CC1=C(N2CC2)C(=O)c2c(COC(N)=O)c3n(c2C1=O)C[C@H]1N[C@@H]31`, the T/C was 106 % of control (endpoint: mean survival time, dose: 3.0 mg/kg/injection, schedule: Q01DX001 (ip), vehicle: distilled water + Tween-80); 118 % of control (endpoint: mean survival time, dose: 6.0 mg/kg/injection, schedule: Q01DX001 (ip), vehicle: distilled water + Tween-80); 122 % of control (endpoint: mean survival time, dose: 12.0 mg/kg/injection, schedule: Q01DX001 (ip), vehicle: distilled water + Tween-80); 120 % of control (endpoint: mean survival time, dose: 24.0 mg/kg/injection, schedule: Q01DX001 (ip), vehicle: distilled water + Tween-80).
Consider `O=C(O)COc1ccc([N+](=O)[O-])cc1`, for which the T/C reads like this: under setting [2], 101 % of control; under setting [4], 94 % of control; under setting [21], 101 % of control.
As to `Cc1nc(Cl)c2cnccn12`, the T/C is, setting by setting: under setting [18], 96 % of control; under setting [20], 100 % of control; (endpoint: mean survival time, dose: 50.0 mg/kg/injection, schedule: Q04DX003 (ip), vehicle: saline) 104 % of control.
`BrC/C(=N\N1CCCCCC1)c1ccc(-c2ccccc2)cc1`: the T/C reads like this: under setting [14], 92 % of control; under setting [15], 93 % of control; under setting [16], 94 % of control.
As to `O=[C-]CC(=O)c1ccccc1.O=[C-]CC(=O)c1ccccc1.[Fe+2]`, the T/C was 95 % of control under setting [22], 87 % of control under setting [23] and 89 % of control under setting [24].
On to `CC[C@@]1(OC(=O)C(N)CCCCN)C(=O)OCc2c1cc1n(c2=O)Cc2cc3ccccc3nc2-1` (some centres not stated), for which the T/C by setting is: (endpoint: median survival time, dose: 7.29 mg/kg/injection, schedule: Q04DX002 (ip), vehicle: water) 114 % of control; (endpoint: median survival time, dose: 10.94 mg/kg/injection, schedule: Q04HX004 (iv), vehicle: water) 165 % of control and 178 % of control; (endpoint: median survival time, dose: 14.58 mg/kg/injection, schedule: Q04DX002 (ip), vehicle: water) 122 % of control; (endpoint: median survival time, dose: 21.87 mg/kg/injection, schedule: Q04HX004 (iv), vehicle: water) 197 % of control and 201 % of control; (endpoint: median survival time, dose: 29.17 mg/kg/injection, schedule: Q04DX002 (ip), vehicle: water) 188 % of control and 204 % of control; (endpoint: median survival time, dose: 58.33 mg/kg/injection, schedule: Q04DX002 (ip), vehicle: water) 231 % of control and 253 % of control. For the same compound, under “endpoint: median survival time, dose: 116.7 mg/kg/injection, schedule: Q04DX002 (ip), vehicle: water”, the T/C is 214 % of control.
Regarding `CCOC(=O)c1cnc(SC)nc1NC(C)c1ccccc1` (configuration not stated), the T/C under setting [22] is 94 % of control; the T/C under setting [2] was 97 % of control; the T/C under setting [23] was 88 % of control; the T/C under setting [4] is 89 % of control; the T/C under setting [24] was 89 % of control; the T/C under setting [21] was 94 % of control.
`O=C(OC(C(=O)O)C(OC(=O)c1ccccc1)C(=O)O)c1ccccc1` (configuration not stated) (tested in a mixture with another compound): the T/C (endpoint: mean survival time, dose: 50.0 mg/kg/injection, schedule: Q04DX002 (ip), vehicle: saline with Tween-80) was 92 % of control; the T/C under setting [22] is 105 % of control; the T/C under setting [7] was 106 % of control; the T/C under setting [3] is 101 % of control; the T/C under setting [23] is 100 % of control; the T/C under setting [8] was 95 % of control. In addition, the T/C is, setting by setting: under setting [5], 106 % of control; under setting [24], 97 % of control; under setting [6], 98 % of control.
Consider `CC(C)(C)CC(C)(C)c1ccc(OCCOC(=O)c2ccccc2C(=O)O)cc1`, for which the T/C (endpoint: mean survival time, dose: 100.0 mg/kg/injection, schedule: Q01DX001 (ip), vehicle: Klucel (hydroxypropylcellulose) (HPC)) is 90 % of control.
For `Cc1ccc(O)c2ncccc12`, the T/C under setting [2] was 114 % of control, the T/C under setting [4] was 97 % of control and the T/C under setting [21] is 103 % of control.
As for `C[N+]12CCC34c5ccccc5NC3C3C(CC(=O)[O-])OCC=C(C1)C3CC42` (configuration not stated), the T/C reads like this: (endpoint: mean survival time, dose: 75.0 mg/kg/injection, schedule: Q01DX001 (ip), vehicle: other) 96 % of control; (endpoint: mean survival time, dose: 150.0 mg/kg/injection, schedule: Q01DX001 (ip), vehicle: other) 98 % of control.
In the case of `N#CCc1ccc(N=Nc2c(N)nc(N)[nH]c2=O)cc1`, the T/C by setting is: under setting [2], 99 % of control; under setting [4], 96 % of control; under setting [21], 87 % of control.
Take `O=C1c2ccccc2C(=O)c2c(O)c3c(c(O)c21)CCC(O)C3` (configuration not stated): the T/C under setting [9] was 102 % of control; the T/C under setting [10] is 107 % of control; the T/C under setting [11] is 96 % of control; the T/C under setting [12] is 91 % of control; the T/C under setting [13] was 93 % of control.
